Earlier results on two compounds are cited in US20100093842A1, “Laulimalide Analogs and Uses Thereof” (EISAI CO. LTD., priority 2003, published 2010).

The test system of one data set is tubulin. The settings on record: low micromolar concentrations; compared with equivalent concentrations of Laulimalide.
The subject of data set [1] is multi-drug resistant (MDR) cell lines that over express the P-glycoprotein pump (P-gp). The note with it: cell lines over expressing P-gp.

Turning to `CC(=O)O[C@H]1C(=O)[C@@]2(C)[C@H]([C@H](OC(=O)c3ccccc3)[C@]3(O)C[C@H](OC(=O)[C@H](O)[C@@H](NC(=O)c4ccccc4)c4ccccc4)C(C)=C1C3(C)C)[C@]1(OC(C)=O)CO[C@@H]1C[C@@H]2O` [Paclitaxel], in the data set with tubulin, the rate of polymerization result is reported as “faster” and the tubulin polymer formed entry is listed as “more tubulin polymer was formed”.

In the case of `C=C1C[C@H](C)C[C@@H]2CC=C[C@@H](C/C=C\C(=O)O[C@H]([C@@H](O)/C=C/[C@@H]3CC(C)=CCO3)C[C@@H]3O[C@H]3[C@@H](O)C1)O2` [Laulimalide], in data set [1], the “activity against multi-drug resistant (MDR) cell lines” value was “show activity against multi-drug resistant (MDR) cell lines”. The “in vitro anti-mitotic activity” value in the data set with several cancer lines (in vitro) is 5 to 12 nM. For the same compound, the cytotoxic activity result in the data set on several cancer lines (several cancer lines) is “potent cytotoxic activity”.
